Measurements reported in patent publication US20240109873A1, “ANTAGONISTS OF THE MUSCARINIC ACETYLCHOLINE RECEPTOR M4” (Vanderbilt University, priority 2020, published 2024).

Biological target: T1, human mAChR M4 (Homo sapiens, UniProt P08173)
T1 construct: expressed in transfected cells; host or cells: CHO-K1 (ATCC), co-transfected with chimeric G protein Gqi5
T1 sequence (P08173 1-479): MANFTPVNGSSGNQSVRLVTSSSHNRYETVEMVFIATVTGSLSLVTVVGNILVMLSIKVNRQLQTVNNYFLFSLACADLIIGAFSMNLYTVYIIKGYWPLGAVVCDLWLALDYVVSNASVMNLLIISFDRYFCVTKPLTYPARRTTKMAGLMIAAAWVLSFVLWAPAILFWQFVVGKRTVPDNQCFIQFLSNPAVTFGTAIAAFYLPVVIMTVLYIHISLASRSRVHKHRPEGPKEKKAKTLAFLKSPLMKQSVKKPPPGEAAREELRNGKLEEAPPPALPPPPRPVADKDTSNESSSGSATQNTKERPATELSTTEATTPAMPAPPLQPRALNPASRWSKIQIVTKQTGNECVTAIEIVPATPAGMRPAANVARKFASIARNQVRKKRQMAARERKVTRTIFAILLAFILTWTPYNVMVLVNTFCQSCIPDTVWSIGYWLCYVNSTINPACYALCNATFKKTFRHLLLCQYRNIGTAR
Assay: mAChR M4 cell-based functional assay (calcium flux, antagonism of EC80 acetylcholine response, M4/Gqi5/CHO-K1 cells)
Details: for IC50: decrease of the response elicited by an EC80 concentration of acetylcholine, CHO-K1 cells, Gqi5
In short: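 CHO-K1 cells stably expressing human M4 with chimeric Gqi5, loaded with Fluo-4 AM; calcium flux read on FDSS. Compounds (10-point, 1:3 curves) added first, then EC20 acetylcholine at 143 s and EC80 at 268 s. IC50 from decrease of EC80 acetylcholine response, four-parameter logistic fit.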

IC50 [nM]	remaining activity at 30 µM (CHO-K1, % ACh maximum at 30 μM, read-out: Human M4 Emin) [%]	SMILES
3.1	–	[2H]C([2H])([C@H]1CCOC(C)(C)C1)N1C[C@H]2C[C@H](Nc3ccc(-c4cccnc4C(F)(F)F)nn3)C[C@H]2C1 (single isomer, unassigned) [Compound 61]
1.1	4	[2H]C([2H])([C@@H]1CCOC(C)(C)C1)N1C[C@H]2C[C@H](Nc3ccc(-c4cccnc4C(F)(F)F)nn3)C[C@H]2C1 [Compound 62, (3aR,5s,6aS)-2-(((R)-2,2-dimethyltetrahydro-2H-pyran-4-yl)methyl-d2)-N-(6-(2-(trifluoromethyl)pyridin-3-yl)pyridazin-3-yl)octahydrocyclopenta[c]pyrrol-5-amine]
